Results published in patent publication US4166114A, “Aminoglycoside antibiotic derivatives and method of use” (Shionogi & Co., Ltd., priority 1976, dated 1979).
Values after ≈ are worked out from the molar mass of the structure shown. Where two headings read alike, the source gives them in different places.

Experiments:
[1] = system: Pseudomonas aeruginosa TB-151; test: MIC (minimum inhibitory concentration); type: cell-based; details: tobramycin resistant organism
[2] = system: Proteus vulgaris TB-162; test: MIC (minimum inhibitory concentration); type: cell-based; details: tobramycin resistant organism
[3] = Pseudomonas aeruginosa, TB151, Table 3, read-out: MIC
[4] = Proteus vulgaris, TB162, Table 3, read-out: MIC
[5] = Pseudomonas aeruginosa, TB151, Table 2, read-out: MIC
[6] = Proteus vulgaris, TB162, Table 2, read-out: MIC

NC[C@H]1O[C@H](O[C@H]2[C@H](O)[C@@H](O[C@H]3O[C@H](CO)[C@@H](O)[C@H](N)[C@H]3O)[C@H](NC(=O)C3(O)CCNC3)C[C@@H]2N)[C@H](O)[C@@H](O)[C@@H]1O (stereo partly drawn) [KM-A der., 1-N-(3-hydroxypyrrolidine-3-carbonyl)-kanamycin A]
MIC [1, 3]: 6.25 µg/mL (≈ 10.5 µM) | MIC [2, 4]: 3.13 µg/mL (≈ 5.24 µM)

NC[C@H]1O[C@H](O[C@H]2[C@H](O)[C@@H](O[C@H]3O[C@H](CO)[C@@H](O)[C@H](N)[C@H]3O)[C@H](N)C[C@@H]2N)[C@H](O)[C@@H](O)[C@@H]1O [KM-A, kanamycin A]
MIC [1, 5]: > 200 µg/mL | MIC [1, 3]: > 100 µg/mL | MIC [2, 6]: > 200 µg/mL | MIC [2, 4]: > 100 µg/mL

CN[C@@H]1[C@@H](O)[C@@H](O[C@@H]2[C@@H](O)[C@H](O[C@H]3OC(CN)=CC[C@H]3N)[C@@H](N)C[C@H]2N)OC[C@]1(C)O [SSM, sisomicin]
MIC [1, 5]: > 200 µg/mL | MIC [2, 6]: 12.5 µg/mL (≈ 27.9 µM)

NC[C@H]1O[C@H](O[C@H]2[C@H](O)[C@@H](O[C@H]3O[C@H](CO)[C@@H](O)[C@H](N)[C@H]3O)[C@H](NC(=O)C3(O)CCNCC3)C[C@@H]2N)[C@H](N)C[C@@H]1O [TOB der.]
MIC [1, 5]: 6.25 µg/mL (≈ 10.5 µM) | MIC [1, 3]: 3.13 µg/mL (≈ 5.26 µM) | MIC [2, 6]: 6.25 µg/mL (≈ 10.5 µM) | MIC [2, 4]: 1.56 µg/mL (≈ 2.62 µM)

NC[C@H]1O[C@H](O[C@H]2[C@H](O)[C@@H](O[C@H]3O[C@H](CO)[C@@H](O)[C@H](N)[C@H]3O)[C@H](N)C[C@@H]2N)[C@H](N)C[C@@H]1O [TOB, tobramycin]
MIC [1, 5]: 100 µg/mL (≈ 214 µM) | MIC [1, 3]: 100 µg/mL (≈ 214 µM) | MIC [2, 6]: 12.5 µg/mL (≈ 26.7 µM) | MIC [2, 4]: 6.25 µg/mL (≈ 13.4 µM)

gentamicin [GM]
MIC ([1]; Table 2): 100 µg/mL | MIC ([2]; Table 2): 6.25 µg/mL
